# Target: T1, Pancreatic alpha-amylase (Sus scrofa, UniProt P00690)
# T1 sequence (P00690 whole entry): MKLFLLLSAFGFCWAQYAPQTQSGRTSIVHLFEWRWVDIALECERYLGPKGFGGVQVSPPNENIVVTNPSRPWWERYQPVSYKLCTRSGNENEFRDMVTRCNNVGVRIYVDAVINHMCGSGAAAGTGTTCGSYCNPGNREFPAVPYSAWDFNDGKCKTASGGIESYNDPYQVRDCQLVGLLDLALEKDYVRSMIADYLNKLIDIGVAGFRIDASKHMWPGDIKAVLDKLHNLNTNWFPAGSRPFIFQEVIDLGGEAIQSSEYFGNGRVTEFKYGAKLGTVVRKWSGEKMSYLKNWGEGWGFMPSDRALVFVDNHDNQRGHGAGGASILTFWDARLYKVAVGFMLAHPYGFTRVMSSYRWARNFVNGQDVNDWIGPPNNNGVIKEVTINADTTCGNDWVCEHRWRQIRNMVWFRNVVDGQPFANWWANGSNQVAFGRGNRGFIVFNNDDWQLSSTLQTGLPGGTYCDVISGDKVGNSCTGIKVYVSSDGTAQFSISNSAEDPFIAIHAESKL
# Experiment: Inhibition of porcine pancreatic alpha-amylase using starch as substrate preincubated for 10 mins followed by substrate addition measured after 10 mins by dinitrosalicylic acid color reagent based assay
row,Compound,IC50
1,Cc1ccc(CN2CCN(S(=O)(=O)c3ccccc3Cl)CC2)cc1,3.2 µM
2,Cc1ccc(CN2CCN(S(=O)(=O)c3cc(Cl)c(Cl)cc3Cl)CC2)cc1,3.52 µM
3,Cc1ccc(CN2CCN(S(=O)(=O)c3ccc(F)cc3)CC2)cc1,1.57 µM
4,COc1ccc(S(=O)(=O)N2CCN(Cc3ccc(C)cc3)CC2)cc1,2.06 µM
5,Cc1ccc(CN2CCN(S(=O)(=O)c3ccc(Cl)cc3Cl)CC2)cc1,3.14 µM
6,Cc1ccc(CN2CCN(S(=O)(=O)c3ccc(Cl)cc3)CC2)cc1,2.35 µM
7,Cc1ccc(CN2CCN(S(=O)(=O)c3ccc([N+](=O)[O-])cc3[N+](=O)[O-])CC2)cc1,2.93 µM
8,Cc1ccc(CN2CCN(S(=O)(=O)c3cccc([N+](=O)[O-])c3)CC2)cc1,2.75 µM
9,Cc1ccc(CN2CCN(S(=O)(=O)c3cc(Cl)cc(Cl)c3)CC2)cc1,3.56 µM
10,Cc1ccc(CN2CCN(S(=O)(=O)c3cccc(Br)c3)CC2)cc1,3.45 µM
11,Cc1ccc(CN2CCN(S(=O)(=O)c3ccc(C)cc3)CC2)cc1,2.87 µM
12,Cc1ccc(CN2CCN(S(=O)(=O)c3ccccc3[N+](=O)[O-])CC2)cc1,3.98 µM
13,Cc1ccc(CN2CCN(S(=O)(=O)c3ccc(Br)cc3)CC2)cc1,2.12 µM
14,Cc1ccc(CN2CCN(S(=O)(=O)c3ccccc3F)CC2)cc1,3.05 µM
15,Cc1ccc(CN2CCN(S(=O)(=O)c3ccccc3C)CC2)cc1,2.88 µM
16,Cc1ccc(CN2CCN(S(=O)(=O)c3ccc(Cl)c(Cl)c3)CC2)cc1,2.98 µM
17,Cc1ccc(CN2CCN(S(=O)(=O)c3cc(Cl)ccc3Cl)CC2)cc1,2.88 µM
18,Cc1ccc(CN2CCN(S(=O)(=O)c3ccc([N+](=O)[O-])cc3)CC2)cc1,2.82 µM
19,Cc1ccc(CN2CCN(S(=O)(=O)c3cccc(Cl)c3Cl)CC2)cc1,2.67 µM

# Reference: ChEMBL document CHEMBL4251552, “Synthesis of piperazine sulfonamide analogs as diabetic-II inhibitors and their molecular docking study” (Eur J Med Chem, 2017)
